Assay results: US6515103B1 (priority 1996, dated 2003)
Values joined by “and” are separate entries in the source; they are usually repeats but may differ in a detail not shown here. Equal entries are not always repeated. Where two headings read alike, the source gives them in different places. Marks after values point to notes of the source that are not given here. Where a SMILES comes first, the peptide text is derived from it. [ ]: non-standard residue; d: D form. Gla = N[C@@H](CC(C(=O)O)C(=O)O)C(=O)O

Legend:
CF No. 1 mice = settings: mouse, in vivo; for anticonvulsant activity in CF No. 1 mice: sc
NMDA receptor [1] = target: NMDA receptor
NMDA receptor [2] = test: spermine-stimulated [3H]MK-801 binding assay, inhibition
[3] = test system: Frings audiogenic seizure-susceptible mice; settings: mouse, in vivo
[4] = test system: Frings audiogenic seizure-susceptible mice; settings: mouse, in vivo; remark: listed apart in the source
[5] = target: NR1-1b/NR2B NMDA receptor subtype
[6] = test system: young (<2 weeks old) mice; settings: mouse, in vivo
[7] = test system: young (<2 weeks old) mice; settings: mouse, in vivo; remark: listed apart in the source
[8] = test system: young (<2 weeks old) mice; settings: mouse, in vivo; remark: listed apart in the source
CF #1 Mice = settings: mouse, in vivo
NR1 A subtype = target: T1, NR1 A subtype (Homo sapiens, UniProt Q05586); format: cell-based
T1 construct: expressed in transfected cells; host or cells: oocytes

NR1.1 B subtype = target: T2, NR1.1 B subtype (Homo sapiens, UniProt Q05586); format: cell-based
T2 construct: expressed in transfected cells; host or cells: oocytes

NR1-1b/NR2B NMDA subtype [9] = test: cell-based
NR1-1b/NR2B NMDA subtype [10] = target: T3, NR1-1b/NR2B NMDA subtype (Homo sapiens, UniProt Q05586+Q13224); test: cell-based
T3 construct: expressed in transfected cells; host or cells: oocytes

AMPA receptor GluR1 = AMPA receptor GluR1 (Homo sapiens, UniProt P42261); format: cell-based
[11] = target: kainate receptors (GluR6) (Homo sapiens, UniProt Q13002); format: cell-based
NR1-1b/NR2D combination = target: T4, NR1-1b/NR2D combination (Homo sapiens, UniProt O15399+Q05586); format: cell-based
T4 construct: expressed in transfected cells; host or cells: oocytes
T4 sequence (O15399 28-1336, other chains not shown): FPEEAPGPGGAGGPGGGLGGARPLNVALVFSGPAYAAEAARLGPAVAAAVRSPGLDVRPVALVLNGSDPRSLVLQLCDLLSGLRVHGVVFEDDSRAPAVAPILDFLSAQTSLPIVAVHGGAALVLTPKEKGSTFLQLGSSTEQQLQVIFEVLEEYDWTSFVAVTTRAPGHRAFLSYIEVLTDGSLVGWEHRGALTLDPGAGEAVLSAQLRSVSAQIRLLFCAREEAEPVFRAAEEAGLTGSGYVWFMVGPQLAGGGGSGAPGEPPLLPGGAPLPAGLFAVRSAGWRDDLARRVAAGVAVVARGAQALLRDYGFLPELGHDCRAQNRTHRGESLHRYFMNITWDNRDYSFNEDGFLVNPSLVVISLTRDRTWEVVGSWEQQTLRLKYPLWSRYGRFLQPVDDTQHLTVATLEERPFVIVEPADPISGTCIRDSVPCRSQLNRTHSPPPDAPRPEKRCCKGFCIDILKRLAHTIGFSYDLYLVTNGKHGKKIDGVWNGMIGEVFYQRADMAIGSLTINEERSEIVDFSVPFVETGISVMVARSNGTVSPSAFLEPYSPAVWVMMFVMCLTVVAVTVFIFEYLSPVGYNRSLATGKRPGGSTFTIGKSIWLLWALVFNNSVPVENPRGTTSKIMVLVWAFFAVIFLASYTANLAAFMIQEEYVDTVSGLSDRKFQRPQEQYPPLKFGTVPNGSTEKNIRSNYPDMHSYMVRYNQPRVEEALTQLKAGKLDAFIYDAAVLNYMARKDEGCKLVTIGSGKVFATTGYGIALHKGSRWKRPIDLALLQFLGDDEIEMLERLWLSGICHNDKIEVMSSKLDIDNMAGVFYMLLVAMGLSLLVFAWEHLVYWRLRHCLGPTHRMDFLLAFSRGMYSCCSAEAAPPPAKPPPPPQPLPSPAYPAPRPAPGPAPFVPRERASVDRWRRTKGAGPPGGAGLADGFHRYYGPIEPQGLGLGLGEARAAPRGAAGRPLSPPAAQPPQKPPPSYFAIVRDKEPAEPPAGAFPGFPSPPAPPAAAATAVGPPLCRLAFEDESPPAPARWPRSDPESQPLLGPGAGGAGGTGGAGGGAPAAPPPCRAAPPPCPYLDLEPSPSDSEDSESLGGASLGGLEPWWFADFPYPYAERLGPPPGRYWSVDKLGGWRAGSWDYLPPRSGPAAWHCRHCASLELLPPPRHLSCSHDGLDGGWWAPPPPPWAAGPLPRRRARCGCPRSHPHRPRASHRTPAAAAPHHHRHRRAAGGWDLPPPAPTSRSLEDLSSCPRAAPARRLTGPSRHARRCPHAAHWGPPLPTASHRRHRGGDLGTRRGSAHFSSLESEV

T3 sequence (Q13224 27-1484, other chains not shown): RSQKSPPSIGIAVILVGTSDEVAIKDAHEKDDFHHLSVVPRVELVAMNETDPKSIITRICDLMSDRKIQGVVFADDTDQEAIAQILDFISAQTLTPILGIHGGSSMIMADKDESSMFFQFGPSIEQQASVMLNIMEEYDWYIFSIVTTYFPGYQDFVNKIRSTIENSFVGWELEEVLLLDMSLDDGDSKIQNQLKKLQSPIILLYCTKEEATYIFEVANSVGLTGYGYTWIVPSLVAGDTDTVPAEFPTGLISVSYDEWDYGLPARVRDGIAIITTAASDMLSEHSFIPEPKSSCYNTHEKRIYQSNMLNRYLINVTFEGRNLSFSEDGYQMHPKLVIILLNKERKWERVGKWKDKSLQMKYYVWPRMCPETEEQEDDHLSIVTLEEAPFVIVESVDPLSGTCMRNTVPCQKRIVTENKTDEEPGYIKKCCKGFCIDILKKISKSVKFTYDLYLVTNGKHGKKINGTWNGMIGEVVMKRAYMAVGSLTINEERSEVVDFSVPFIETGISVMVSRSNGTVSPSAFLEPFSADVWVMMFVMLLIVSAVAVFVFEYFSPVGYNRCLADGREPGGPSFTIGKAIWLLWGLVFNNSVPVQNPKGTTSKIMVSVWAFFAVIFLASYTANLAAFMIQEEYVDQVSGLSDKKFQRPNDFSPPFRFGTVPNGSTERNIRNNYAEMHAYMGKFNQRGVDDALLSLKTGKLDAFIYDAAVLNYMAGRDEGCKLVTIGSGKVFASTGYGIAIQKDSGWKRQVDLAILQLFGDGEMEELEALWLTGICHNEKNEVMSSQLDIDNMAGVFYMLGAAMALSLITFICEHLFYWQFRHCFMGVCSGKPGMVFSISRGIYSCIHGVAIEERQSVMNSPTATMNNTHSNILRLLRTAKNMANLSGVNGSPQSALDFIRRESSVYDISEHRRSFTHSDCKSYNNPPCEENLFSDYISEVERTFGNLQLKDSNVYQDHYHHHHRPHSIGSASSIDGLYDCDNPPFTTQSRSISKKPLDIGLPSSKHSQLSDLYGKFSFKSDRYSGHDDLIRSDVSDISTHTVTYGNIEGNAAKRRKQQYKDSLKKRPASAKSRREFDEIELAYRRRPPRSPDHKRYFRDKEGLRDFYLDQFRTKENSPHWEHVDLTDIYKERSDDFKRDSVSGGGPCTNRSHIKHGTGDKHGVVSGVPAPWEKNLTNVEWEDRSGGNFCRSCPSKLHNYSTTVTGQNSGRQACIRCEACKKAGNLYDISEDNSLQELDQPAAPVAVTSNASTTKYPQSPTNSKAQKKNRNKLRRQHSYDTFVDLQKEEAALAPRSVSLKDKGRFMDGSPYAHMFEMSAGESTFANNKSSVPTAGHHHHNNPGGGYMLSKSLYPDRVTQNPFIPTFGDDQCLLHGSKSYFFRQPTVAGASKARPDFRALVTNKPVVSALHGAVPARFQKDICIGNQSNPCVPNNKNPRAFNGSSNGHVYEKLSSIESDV
Sequence of kainate receptors (GluR6) (Q13002 32-908, species assumed): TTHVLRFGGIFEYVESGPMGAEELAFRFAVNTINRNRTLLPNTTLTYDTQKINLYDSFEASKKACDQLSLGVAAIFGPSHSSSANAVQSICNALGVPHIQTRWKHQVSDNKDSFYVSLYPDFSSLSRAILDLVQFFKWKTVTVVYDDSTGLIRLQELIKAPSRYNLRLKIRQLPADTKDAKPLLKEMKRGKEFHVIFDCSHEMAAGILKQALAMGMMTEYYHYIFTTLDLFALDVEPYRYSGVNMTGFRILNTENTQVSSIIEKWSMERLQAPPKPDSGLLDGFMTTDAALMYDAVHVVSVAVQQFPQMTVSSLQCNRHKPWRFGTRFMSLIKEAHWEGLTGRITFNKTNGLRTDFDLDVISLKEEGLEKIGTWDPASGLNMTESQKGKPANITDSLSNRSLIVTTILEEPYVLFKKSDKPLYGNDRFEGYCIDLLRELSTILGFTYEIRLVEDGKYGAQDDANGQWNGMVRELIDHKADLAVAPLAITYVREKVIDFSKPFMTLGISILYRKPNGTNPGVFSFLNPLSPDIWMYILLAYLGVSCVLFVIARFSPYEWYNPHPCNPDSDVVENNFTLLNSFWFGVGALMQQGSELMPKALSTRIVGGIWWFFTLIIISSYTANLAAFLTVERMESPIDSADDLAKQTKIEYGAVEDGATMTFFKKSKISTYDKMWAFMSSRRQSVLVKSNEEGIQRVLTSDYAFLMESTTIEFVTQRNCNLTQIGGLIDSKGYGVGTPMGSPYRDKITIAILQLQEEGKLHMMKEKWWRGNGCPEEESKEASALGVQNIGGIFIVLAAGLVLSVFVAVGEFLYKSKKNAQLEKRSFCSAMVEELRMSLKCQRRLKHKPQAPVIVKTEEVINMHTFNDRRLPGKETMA
Sequence of AMPA receptor GluR1 (P42261 19-906): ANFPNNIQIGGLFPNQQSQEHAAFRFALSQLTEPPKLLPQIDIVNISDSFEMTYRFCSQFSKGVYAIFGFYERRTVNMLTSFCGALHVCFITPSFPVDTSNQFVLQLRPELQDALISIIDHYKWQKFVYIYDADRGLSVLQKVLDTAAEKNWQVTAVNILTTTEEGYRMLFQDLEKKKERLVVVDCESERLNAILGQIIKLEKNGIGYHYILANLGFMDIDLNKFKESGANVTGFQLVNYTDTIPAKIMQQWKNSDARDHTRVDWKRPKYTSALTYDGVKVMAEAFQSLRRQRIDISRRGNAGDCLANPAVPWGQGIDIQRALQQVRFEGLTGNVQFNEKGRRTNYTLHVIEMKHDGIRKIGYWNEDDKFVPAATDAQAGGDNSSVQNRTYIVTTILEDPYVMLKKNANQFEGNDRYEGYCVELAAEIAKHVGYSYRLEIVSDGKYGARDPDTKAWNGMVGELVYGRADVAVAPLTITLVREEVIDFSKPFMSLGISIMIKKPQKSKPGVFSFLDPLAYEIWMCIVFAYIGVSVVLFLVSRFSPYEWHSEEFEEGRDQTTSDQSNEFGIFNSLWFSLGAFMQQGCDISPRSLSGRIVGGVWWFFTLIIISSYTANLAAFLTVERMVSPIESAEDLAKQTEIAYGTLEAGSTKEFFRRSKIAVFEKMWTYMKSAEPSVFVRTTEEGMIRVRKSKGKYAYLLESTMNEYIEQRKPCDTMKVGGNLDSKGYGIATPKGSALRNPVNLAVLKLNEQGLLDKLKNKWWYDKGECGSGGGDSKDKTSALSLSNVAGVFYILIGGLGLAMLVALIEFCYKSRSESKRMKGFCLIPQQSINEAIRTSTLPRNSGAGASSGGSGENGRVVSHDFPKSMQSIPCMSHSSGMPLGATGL

Molecule: Conantokin Qu [Con Qu]
- anticonvulsant activity in CF No. 1 mice (CF No. 1 mice): anticonvulsant activity

Molecule: Conantokin G (peptide)
- IC50 (NMDA receptor [1]): 195 nM
- IC50 (NMDA receptor [2]): 195 nM

Molecule: CSCC[C@H](NC(=O)[C@H](CCCCN)NC(=O)[C@H](CCC(N)=O)NC(=O)[C@H](Cc1ccc(O)cc1)NC(=O)[C@H](CC(C(=O)O)C(=O)O)NC(=O)[C@H](CC(C(=O)O)C(=O)O)NC(=O)[C@H](CCC(=O)O)NC(=O)CN)C(=O)N[C@@H](CC(C)C)C(=O)N[C@@H](CC(C(=O)O)C(=O)O)C(=O)N[C@@H](CC(N)=O)C(=O)N[C@@H](CC(C)C)C(=O)N[C@@H](CCCNC(=N)N)C(=O)N[C@@H](CC(C(=O)O)C(=O)O)C(=O)N[C@@H](C)C(=O)N[C@@H](CCC(=O)O)C(=O)N[C@H](C(=O)N[C@@H](CCCCN)C(=O)N[C@@H](CCCCN)C(=O)N[C@@H](CC(N)=O)C(=O)N[C@@H](C)C(N)=O)C(C)C [Con T, Conantokin T] (H-GE[Gla][Gla]YQKML[Gla]NLR[Gla]AEVKKNA-NH2)
- P.I. [3]: 13
- TD50 [4]: 0.228 nmols
- behavioral toxicity, rotorod test ([4]; iv, 12 mg/kg): No animals exhibited behavioral toxicity

Molecule: Conantokin S1 [Con S1]
- anticonvulsant activity in CF No. 1 mice (CF No. 1 mice): anticonvulsant activity

Molecule: Conantokin R (peptide)
- Ki [5]: 140 nM

Molecule: A^7 Con G (peptide)
- IC50 (NMDA receptor [2]): 45 nM

Molecule: Conantokin Oc [Con Oc]
- Catalepsy Test, positive/tested [6]: 0/3
- Sleepy Test, positive/tested [7]: 2/3 and 0/3
- Righting Reflex, positive/tested [8]: 0/3

Molecule: Conantokin Gm [Con Gm]
- anticonvulsant activity in CF No. 1 mice (CF No. 1 mice): anticonvulsant activity

Molecule: CC[C@H](C)[C@H](NC(=O)[C@H](CC(N)=O)NC(=O)[C@H](CC(C(=O)O)C(=O)O)NC(=O)[C@H](CCCNC(=N)N)NC(=O)[C@H](C)NC(=O)[C@H](CC(C)C)NC(=O)[C@H](CC(C(=O)O)C(=O)O)NC(=O)[C@H](C)NC(=O)[C@H](C)NC(=O)[C@H](CCSC)NC(=O)[C@H](CCCCN)NC(=O)[C@H](C)NC(=O)[C@@H](NC(=O)[C@H](CC(C(=O)O)C(=O)O)NC(=O)[C@H](CC(C(=O)O)C(=O)O)NC(=O)[C@H](CCC(=O)O)NC(=O)CN)C(C)C)C(=O)N[C@@H](C)C(=O)N[C@@H](CCCCN)C(=O)NCC(=O)N[C@H]1CSSC[C@@H](C(=O)N[C@@H](Cc2ccc(O)cc2)C(=O)N2CCC[C@H]2C(=O)O)NC(=O)[C@H](CC(N)=O)NC(=O)[C@H](C(C)C)NC(=O)[C@H](CCCCN)NC1=O [Con R, Conantokin R]
- Catalepsy Test, positive/tested [6]: 2/3
- MES ED50 (CF No. 1 mice): 0.083 nmols
- P.I. (CF No. 1 mice): 3.6
- anticonvulsant activity in CF No. 1 mice (CF No. 1 mice): anticonvulsant activity
- # Protected/# Tested [3]: 4/4
- ED50 [3]: 0.013^c nmols and 0.013 nmols
- ED50 (pmol, i.c.v.) [3]: 9 pmol and 9.00 pmol
- P.I. [3]: 17
- Protective Index, PI (TD50/ED50) [3]: 18
- antiseizure activity relative to valproic acid [3]: greater than 400,000 fold
- protective index relative to valproic acid [3]: at least eight times better
- TD50 (CF #1 Mice): ˜0.300 nmols
- inhibition of homomeric NR1 complex, A subtype (NR1 A subtype): no effect
- inhibition of homomeric NR1 complex, NR1.1 B subtype (NR1.1 B subtype): only inhibited the NR1.1 B subtype
- affinity for NR1-1b/NR2B relative to NR1-1b/NR2D (NR1-1b/NR2B NMDA subtype [9]): greater than 50 fold
- selectivity for the B splice variant of NR1 in heteromeric complexes (NR1-1b/NR2B NMDA subtype [9]): selective for the B splice variant
- inhibition of heteromeric NR1:NR2B complexes with B splice variant of NR1 (NR1-1b/NR2B NMDA subtype [10]): inhibited
- inhibition at 3 µM (NR1-1b/NR2B NMDA subtype [10]; read-out: inhibition of the current produced by the NR1-1b/NR2B NMDA subtype in response to glutamate and glycine): ~95%
- inhibition of AMPA receptor GluR1 (AMPA receptor GluR1): not to inhibit
- inhibition of kainate receptors (GluR6) [11]: not to inhibit
- Sleepy Test, positive/tested [7]: 2/3
- Righting Reflex, positive/tested [8]: 2/3
- effect on NR1-1b/NR2D combination (NR1-1b/NR2D combination): not affected
- TD50 [4]: 164 pmol

Molecule: Conatokin L [Con L]
- Catalepsy Test, positive/tested [6]: 4/4 and 3/4
- anticonvulsant activity in CF No. 1 mice (CF No. 1 mice): anticonvulsant activity
- Sleepy Test, positive/tested [7]: 4/4
- Righting Reflex, positive/tested [8]: 2/4 and 3/4
